Measurements as given in patent US10765680B2, “Combination of a MCL-1 inhibitor and a taxane compound, uses and pharmaceutical compositions thereof” (priority 2017, dated 2020).

Experiments:
[1] = test system: MDA-MB-157 breast cancer cell line; experiment: 72 hours CellTiter-Glo proliferation assay, MDA-MB-157; assay type: cell-based; details: single agent, read-out: Abs IC50
Experimental: (§1) Compounds were dissolved in 100% DMSO (Sigma, Catalog # D2438-50 ML) at a stock concentration of 10 mM and stored at −20° C. until use. Compounds were arrayed in 2 ml deep 96-well plates (Greiner bio-one, catalog number 780271) serially diluted 3-fold. Compound 1 was used over a concentration range of 0.0-10.0 μM. Paclitaxel was used over a concentration range of 0.0-1.0 μM in breast cancer cells and 0.0-2.0 μM range in lung cancer cells.
(§2) All cell lines were purchased from the American Type Culture Collection and cultured according to vendor recommendations. […] All cell lines were determined to be free of mycoplasma contamination by a PCR detection assay performed at Idexx Radil (Columbia, Mo., USA) and authenticated by SNP analysis. […] Cells were expanded to T-75 flasks and assessed for viability using a Beckman-Coulter ViCell counter prior to plating. […]
(§3) Cell proliferation was measured in 72 hours CellTiter-Glo™ (CTG) assays and all results shown are the result of at least triplicate measurements. […] After 72 hours of compound treatment the effects of compounds on cell proliferation was determined using the CellTiter-Glo™ Luminescent Cell Viability Assay (Promega, Catalog # G7573). This is a homogeneous method to determine the number of viable cells in culture based on quantitation of the ATP present, which signals the presence of metabolically active cells. […]

[2] = test system: SK-BR-3 breast cancer cell line; experiment: 72 hours CellTiter-Glo proliferation assay, SK-BR-3; assay type: cell-based; details: single agent, read-out: Abs IC50
Experimental: as §1, §2, §3

[3] = test system: MDA-MB-468 breast cancer cell line; experiment: 72 hours CellTiter-Glo proliferation assay, MDA-MB-468; assay type: cell-based; details: single agent, read-out: Abs IC50
Experimental: as §1, §2, §3

[4] = test system: HCC1937 breast cancer cell line; experiment: 72 hours CellTiter-Glo proliferation assay, HCC1937; assay type: cell-based; details: single agent, read-out: Abs IC50
Experimental: as §1, §2, §3

[5] = test system: BT-549 breast cancer cell line; experiment: 72 hours CellTiter-Glo proliferation assay, BT-549; assay type: cell-based; details: single agent, read-out: Abs IC50
Experimental: as §1, §2, §3

[6] = test system: MDA-MB-231 breast cancer cell line; experiment: 72 hours CellTiter-Glo proliferation assay, MDA-MB-231; assay type: cell-based; details: single agent, read-out: Abs IC50
Experimental: as §1, §2, §3

[7] = test system: NCI-H522 lung cancer cell line; experiment: 72 hours CellTiter-Glo proliferation assay, NCI-H522; assay type: cell-based; details: single agent, read-out: Abs IC50
Experimental: as §1, §2, §3

[8] = test system: TNBC PDX model OD-BRE-00589; experiment: TNBC PDX model OD-BRE-00589, antitumor activity; assay type: in vivo, female SCID mice; details: Compound 1 70 mg/kg iv once, liposomal formulation
Experimental: Docetaxel was formulated in 5% ethanol, 5% PS80 and 90% Glucose at 0.67 mg/ml to administer 10 mg/kg. […] OD-BRE-00589 is a triple negative breast cancer PDX, obtained from the IMODI consortium. […] It was grafted on SCID mice as fragments of 27 mm^3 volume. […] The administrations were performed once in the caudal vein.

MDA-MB-231 xenografts = experiment: MDA-MB-231 breast xenograft model, antitumor efficacy; assay type: in vivo, female nude rats; details: Compound 1 50 mg/kg QW×7 iv infusion, liposomal formulation
[9] = test system: HCC1395 breast cancer cell line; experiment: 72 hours CellTiter-Glo proliferation assay, HCC1395; assay type: cell-based; details: single agent, read-out: Abs IC50
Experimental: as §1, §2, §3

[10] = test system: BT-20 breast cancer cell line; experiment: 72 hours CellTiter-Glo proliferation assay, BT-20; assay type: cell-based; details: single agent, read-out: Abs IC50
Experimental: as §1, §2, §3

[11] = test system: MDA-MB-436 breast cancer cell line; experiment: 72 hours CellTiter-Glo proliferation assay, MDA-MB-436; assay type: cell-based; details: single agent, read-out: Abs IC50
Experimental: as §1, §2, §3

[12] = test system: PDX models resistant to docetaxel; experiment: PDX models resistant to docetaxel, efficacy; assay type: in vivo, female Swiss Nude mice; details: Compound 1 70 mg/kg IV once a week, liposomal formulation
Experimental: PDX models whose resistance to docetaxel has been confirmed in vivo were tested. Each treatment group included 5 female Swiss Nude mice, aged from 6 to 8 weeks old. The treatment started when xenografts reached a mean tumor volume of ˜120-150 mm^3. Groups of mice were then randomly affected to the different treatments. The number of grafted animals depended on the homogeneity of the tumor growth.
Formulated in a liposomal formulation, Compound 1 was administered intravenously at 70 mg/kg once a week. The formulation had to be prepared extemporaneously. Paclitaxel diluted in 0.9% NaCl was given ip at 25 mg/kg. Paclitaxel was given QW 16 hours before the administration of Compound 1. The administration schedule of the different treatments is defined as follows: […]
Tumor sizes were measured twice a week and weights of individual mice were measured once a week. Treatments were done until the median tumor volume of the most responsive group started to regrow. Mice were followed after the stop of the treatment to compare the time to relapse between the groups. […]

[13] = test system: HCC1143 breast cancer cell line; experiment: 72 hours CellTiter-Glo proliferation assay, HCC1143; assay type: cell-based; details: single agent, read-out: Abs IC50
Experimental: as §1, §2, §3

[14] = test system: Hs 578T breast cancer cell line; experiment: 72 hours CellTiter-Glo proliferation assay, Hs 578T; assay type: cell-based; details: single agent, read-out: Abs IC50
Experimental: as §1, §2, §3

COc1ccccc1-c1nccc(COc2ccccc2C[C@@H](Oc2ncnc3sc(-c4ccc(F)cc4)c(-c4ccc(OCCN5CCN(C)CC5)c(Cl)c4C)c23)C(=O)O)n1 [Compound 1, (2R)-2-{[(5Sa)-5-{3-chloro-2-methyl-4-[2-(4-methylpiperazin-1-yl)ethoxy]phenyl}-6-(4-fluorophenyl)thieno[2,3-d]pyrimidin-4-yl]oxy}-3-(2-{[2-(2-methoxyphenyl)pyrimidin-4-yl]methoxy}phenyl)propanoic acid]
IC50 [1]: > 10000 nM | IC50 [2]: 301 nM | IC50 [3]: 9920 nM | IC50 [4]: 137 nM | IC50 [5]: > 10000 nM | IC50 [6]: > 10000 nM | IC50 [7]: 713 nM | inhibition of tumor growth, single agent [8]: insufficient in inhibiting tumor growth | efficacy (MDA-MB-231 xenografts): no efficacy | IC50 [9]: 9920 nM | IC50 [10]: 653 nM | IC50 [11]: > 10000 nM | inhibition of tumor growth, single agent [12]: insufficient in inhibiting tumor growth | IC50 [13]: > 10000 nM | IC50 [14]: 520 nM
